Earlier results on one compound are cited in patent US11590127B2, “Gastro-resistant formulation containing posaconazole” (ALFRED E. TIEFENBACHER (GMBH & CO. KG), priority 2015, dated 2023).

Regarding `CC[C@@H]([C@H](C)O)n1ncn(-c2ccc(N3CCN(c4ccc(OC[C@@H]5CO[C@@](Cn6cncn6)(c6ccc(F)cc6F)C5)cc4)CC3)cc2)c1=O` [Posaconazole], the aqueous solubility entry is given as “low aqueous solubility”. Besides, the “temperature above which it degrades” value (thermal degradation) was “above 160 °C”.
